Assays:
[1] = tested on: nNOS-Knockout mice; test: Urination dynamics (urination frequency, urination volume) in nNOS-Knockout mice, observation system for urination behavior; assay type: in vivo
Text: There has been established no animal models of disease reflecting frequent urination in elderly male subjects. In carefully searching various kinds of information, nNOS-Knockout mice were pointed out to have a possibility as a model of frequent urination (dilatation of urinary bladder, hyperplasia of smooth muscle, lack of relaxation responses, see Non-patent Document 9 for its creation) in May, 1997 (Non-patent Document 10), but have not been studied as a therapeutic model. nNOS-Knockout mice have now been investigated for their possibility as a model of frequent urination by using an instrument (an observation system for urination behavior, Muromachi Kikai Co., Ltd., Japan) to determine urination dynamics (urination volume and urination frequency) of the mice. […]
Nicorandil was given to nNOS-Knockout mice (8-13 months of age) by forced oral administration at 6 mg/kg/day for 7 days using a sound for oral administration. […]
The daily urination frequency was measured with an observation system for urination behavior (Muromachi Kikai Co., Ltd., Japan). […]
Furthermore, with the aim of clarifying the contribution of the nicorandil's nitrate-like action, pinacidil (SIGMA) known as a pure and potent KATP channel opener was also used for comparison of the urination frequency (FIG. 2).

[2] = tested on: urethral obstruction rats; test: Urination frequency after water loading in rat urethral obstruction model; assay type: in vivo; details: over 210 minutes
Text: As described above, there are many causes that induce frequent urination, and dysuria-induced frequent urination is also known. A rat animal model of urethral obstruction has been reported as a model for efficacy verification of many ameliorating agents for frequent urination (Non-patent Documents 17 and 18). In this example, a midline incision was made in the lower quadrant of each rat (9 weeks of age) under pentobarbital anesthesia, and the proximal urethra was ligatured together with a stainless rod (φ1 mm) by using a 3-0 silk suture, followed by pulling out the rod to create a urethral obstruction model. At 45 days after urethral obstruction, the rats were subjected to water loading (30 ml/kg, po; “water loading” as used herein refers to forced oral administration of distilled water using a sound) and observed for their urination frequency over 210 minutes, such that animals having a urination frequency greater than that of normal animals (5 times) were selected as animals with frequent urination. These animals were administered orally with nicorandil (1 mg/kg) or KRN2391 (1 mg/kg) (dissolved in distilled water for water loading) and then observed for their urination frequency over 210 minutes (n=5 for each group).

[3] = tested on: non-anesthetized conscious rats; test: Hypotensive effect (blood pressure) in non-anesthetized conscious rats after oral administration; assay type: in vivo, rat; details: compared at a dosage causing a 20 mmHg reduction in blood pressure, FIG. 4
Text: In view of this fact, to study a hypotensive effect regarded as a side effect in the amelioration of frequent urination, both drugs were compared for their effect on blood pressure when orally administrated to non-anesthetized conscious rats (“non-anesthetized conscious rat” as used herein refers to an animal pre-treated such that a catheter for blood pressure measurement is inserted and placed in its femoral artery under anesthesia to ensure blood pressure monitoring, which animal is used on the following day after the anesthesia wears off). […] The measurement of blood pressure was performed as follows: the catheter for blood pressure measurement was connected to a blood pressure transducer (Nihon Kohden Corporation, Japan) and input into a polygraph (Nihon Kohden Corporation, Japan).

[4] = tested on: urethral obstruction rats; details: rat, in vivo, po, 1 mg/kg
Protocol: “Urinary retention” as used herein refers to a state where the urination volume is 3 hr=0.
Rats at 45 days after urethral obstruction (φ1 mm, urethra was obstructed in rats at 9 weeks of age) were administered orally with nicorandil (3 mg/kg) or KRN2391 (1 mg/kg), subjected to water loading (30 ml/kg, po) and then monitored for their urination volume over 180 minutes (n=10 for each group).

[5] = tested on: nNOS-Knockout mice; test: Daily urination volume in nNOS-Knockout mice (oliguria); assay type: in vivo; details: nNOS-Knockout mice 12-16 weeks, 1 mg/kg, 24 hours after administration, p<0.05
[6] = tested on: KATP channel; details: report, Non-patent Document 7; cited from earlier work
[7] = Enarmon-depot 3.6 mg/kg/day, sc, 7 days, n=5, vs control group (n=8), p<0.05

N#CNC(=NCCO[N+](=O)[O-])c1cccnc1 [KRN2391]
effect on daily urination frequency (ameliorating effect on urination) ([1]; 1 mg/kg, p<0.05, FIG. 2): significant ameliorating effect | reduction of urination frequency ([2]; 1 mg/kg po, vs before administration): 34.3% | urination frequency after administration ([2]; 45 days after obstruction, 1 mg/kg po with water loading 30 ml/kg, n=5, p<0.05): 2.4±0.8 times/210 minutes | amount producing hypotensive effect, smaller than nicorandil [3]: 10 fold | number of animals without urination [4]: 5 animals | urinary retention [4]: a state of urinary retention was observed | urination volume [4]: 0.50 ± 0.30 mL | effect on daily urination volume [5]: significant inhibitory effect | hypotensive effect due to KATP channel opening action, stronger than that of nicorandil [6]: 25 fold

CC(N/C(=N\C#N)Nc1ccncc1)C(C)(C)C (stereo not shown) [pinacidil]
urination frequency ([1]; oral 0.3 mg/kg (dose strongly affecting the mouse cardiovascular system), FIG. 2): no significant decrease

CCCCCCC(=O)O[C@H]1CC[C@H]2[C@@H]3CCC4=CC(=O)CC[C@]4(C)[C@H]3CC[C@]12C [testosterone, testosterone enanthate]
daily urination volume ([1]; Enarmon-depot 3.6 mg/kg/day, sc, 7 days, n=5, vs control group (n=8)): no change | single urination volume [1, 7]: significant increase | urination frequency [1, 7]: significant decrease

Reference: patent US20080033018A1, “Therapeutic Agents For Overactive Bladder” (Chugai Seiyaku Kabushiki Kaisha, priority 2004, published 2008)
